{
  "source": "patent US20260200943A1",
  "about": "“COMPOUNDS FOR TREATING CANCER” (Genesis Therapeutics, Inc., priority 2022, published 2026)",
  "details": "other bond, 2 steps",
  "note": "Like-named read-outs stand apart in the source and are kept apart here.",
  "data": [
    {"molecule": "CC(C)(C)OC(=O)NCCCCCNc1cc(Nc2ncc(C3CCC(OC(=O)Oc4ccc([N+](=O)[O-])cc4)C3)cn2)ccc1S(=O)(=O)NC(=O)OC(C)(C)C", "note": "(stereo not drawn)", "values": [
      {"measurement": "ring closure, isolated yield", "setting": "the molecule shown is the open-chain precursor, 20-membered ring, HCOOH, then DIEA, DMF, 76.7 mM, 50.0 °C", "result": 39.5, "unit": "%"}
    ]},
    {"molecule": "CC(C)(C)OC(=O)NCCOCCNS(=O)(=O)c1ccc(Nc2cc([C@H]3CC[C@@H](OC(=O)Oc4ccc([N+](=O)[O-])cc4)C3)n(C(C)(C)C)n2)c(F)c1", "values": [
      {"measurement": "ring closure, isolated yield", "setting": "the molecule shown is the open-chain precursor, 21-membered ring, TFA, then DIPEA, DCE, 5.25 mM, 25.0 °C", "result": 62.3, "unit": "%"}
    ]},
    {"molecule": "(1^1S,1^3R,Z)-2^1H-15-oxa-5-thia-3,6,13-triaza-2(5,3)-pyrazola-4(1,4)-cyclohexana-1(1,3)-cyclopentanacyclopentadecaphan-14-one 5,5-dioxide", "values": [
      {"measurement": "ring closure, isolated yield", "setting": "22-membered ring, TFA, then DIPEA, DCM/DCE, 4.26 mM, 25.0 °C", "result": 50, "unit": "%"}
    ]}
  ]
}
